Our source for the IC50 values is patent US20250129021A1, “SMALL MOLECULE PROTEIN SYNTHESIS MODULATORS” (Interdict Bio, Inc., priority 2023, published 2025).

Format in all cases: biochemical
Assay [1] relates to MYC. Description: In vitro transcription-translation (IVTT) assay, MYC reporter. The note with it: HeLa S3 lysate, 2 hrs at 30° C. The gist of the method:
(§1)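 Reporter: mCherry, P2A, then 3×FLAG-target peptide-sfGFP fusion, IRES-initiated; HeLa S3 lysate IVTT; cpd dilutions 30 μM−0.1 μM half-log in 100% DMSO (dilution-plate conc); DNA added last; 2 h, 30° C; PBS quench.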

Assay [2] deals with ALK. Put plainly: In vitro transcription-translation (IVTT) assay, ALK reporter. The settings on record: HeLa S3 lysate, sfGFP/mCherry ratio, 2 hrs at 30° C. The text has this:
All reporter constructs have been cloned into the pT7CFE1-CHis plasmid (ThermoFisher #88860) using Gibson assembly procedures (NEB #E2611L). The parental pT7CFE1-CHis plasmid contains an EMCV IRES at the 5′UTR for translation initiation, a multiple-cloning site (MCS) for gene insertion, an optional C-terminal His-epitope tag, and polyA sequence in the 3′UTR to regulate mRNA stability. All reporters are designed to be inserted at the MCS to include a red fluorescent protein (mCherry), P2A self-cleaving peptide which releases the preceding mCherry protein product, and a fusion open reading frame containing a 3×FLAG epitope, a peptide sequence of interest (TEST), and green fluorescent protein (sfGFP).
Construct Plasmid Preparation: All plasmids are isolated from MACH1 cells (ThermoFisher) grown overnight in ampicillin-containing luria broth, and purified using ZymoPure Express Plasmid Midiprep Kit (Zymo Research). Constructs are sequenced verified and diluted to a working concentration of 110 ng/μL.
HeLa S3 Lysate Preparation: HeLa S3 cell pellets are acquired from Ipracell/Ipratech (Belgium) and shipped as 4 mL frozen cell pellets on dry ice for storage at −80° C. until use. The procedure for lysate preparation is as follows. Prepare 1× Lysis Buffer, cold and stored on ice:
Each preparation takes 8 cell pellets (4 ml packed volume each, approximately 1.0×10^9 cells per pellet). Thaw cell pellets from −80° C. on ice for 90 mins. Lay pellets horizontally on top of the ice and rotate every 30 mins to ensure even thawing. Once thawed, add 4 mL of cold lysis buffer to each pellet, and using a serological pipet, gently pipet up and down to break up clumps. Incubate resuspended cells in ice for an additional 30 mins (plunged into ice). During 30 min incubation, rinse and RNase-zap (Ambion) glass dounces (use loose pestle “A”), gently dry and place on ice until needed. Prepare RNase-free Eppendorf tubes for spinning and for batch storage. Add batch labels to 1.5-1.7 mL RNase-free microcentrifuge tubes (labeling scheme below). Each batch will have an extra 1.5-1.7 mL RNase-free microcentrifuge tube for 40 μL of lysate, label the top of this tube (labeling scheme below). After 30 min incubation, transfer all 8 mL of cell pellet to dounce. Cell lysis is complete after douncing 100 times. Aliquot cell lysis into 1.5-1.7 mL temporary-microcentrifuge tubes. Place tubes in centrifuge with “fins” out, and spin at 1,200×g for 5 mins. After the first spin use a 1 mL pipet to resuspend each tube and repeat spin. This acts as an additional lysis step, is more vigorous and increases lysate yield. During second spin get liquid N2 and a fresh conical tube on ice. After spin is complete, transfer supernatant (lysate) from microcentrifuge tubes into the 50 mL conical tube and keep on ice. Repeat steps 10-14 for all other cell pellets until completed. Once all cell lysate has been transferred to the 50 mL conical tube pipet to mix so the solution is homogenous. Transfer 1 mL of lysate into batch-labeled microcentrifuge tubes and flash freeze in liquid nitrogen. Be sure to pipet up and down to mix throughout transfer step. Place all tubes in the […] for long-term storage.
In vitro transcription-translation assay setup: Each assay includes a master mix containing lysate and shared components, a 96-well plate containing compound titrations for testing, a 96-well DNA plate with reporter constructs to be tested, 96-well skirted PCR plates, and 96-well flat-bottom, black, fluorescent assay plates. […]

Assay [3] concerns CCND1. Description: In vitro transcription-translation (IVTT) assay, CCND1 reporter. The settings on record: IVTT, HeLa S3 lysate, 2 hrs at 30° C. The gist of the method:
as §1

The test system of assay [4] is MCL-1. Put plainly: In vitro transcription-translation (IVTT) assay, MCL-1 reporter. The note with it: IVTT, HeLa S3 lysate, 2 hrs at 30° C.; read-out: MCL1 IC50. The method, boiled down: as §1
The test system of assay [5] is CCNTB1. Put plainly: In vitro transcription-translation (IVTT) assay, CCNTB1 reporter. The note with it: HeLa S3 lysate, 2 hrs at 30° C. The method, boiled down:
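HeLa S3 lysate-based coupled transcription-translation reactions with reporter plasmids, compounds in half-log dilutions (30 μM−0.1 μM, in DMSO), 2 h at 30° C. sfGFP/mCherry ratio, corrected for no-DNA background, normalized to no-drug control and fitted for IC50.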

Setting [6] is: IVTT assay, MYC reporter, normalized sfGFP/mCherry ratio, half-log dilutions 30 μM-0.1 μM.

Counter-ions that a name gives are not always drawn.

For orientation: IC50 means the point on the concentration scale where inhibition reaches its midpoint. In the case of `COc1ccc(C[C@H]2NC[C@H](O)[C@H]2OC(=O)NCc2cn(-c3cc4ccc(O)cc4oc3=O)nn2)cc1` [V187692, (2R,3S,4S)-4-hydroxy-2-[(4-methoxyphenyl)methyl]pyrrolidin-3-yl N-{[1-(7-hydroxy-2-oxochromen-3-yl)-1,2,3-triazol-4-yl]methyl}carbamate; trifluoroacetic acid], the half-maximal inhibitory concentration (IC50) in assay [1] (sfGFP/mCherry ratio) and in assay [2] was over 30 µM in each case.

Consider `COc1ccc(C[C@H]2NC[C@H](O)[C@H]2OC(=O)NCCN2CC[C@H](O)C2)cc1` [V187576, (2R,3S,4S)-4-hydroxy-2-[(4-methoxyphenyl)methyl]pyrrolidin-3-yl N-{2-[(3S)-3-hydroxypyrrolidin-1-yl]ethyl}carbamate trifluoroacetic acid salt], for which the half-inhibitory concentration (IC50) in assay [1] (sfGFP/mCherry ratio) was under 10 µM; in assay [2] it was 10 to 20 µM.

For the compound `COc1ccc(C[C@H]2NC[C@H](O)[C@H]2OC(=O)NCCN2CC(O)C2)cc1` [V187579, (2R,3S,4S)-4-hydroxy-2-[(4-methoxyphenyl)methyl]pyrrolidin-3-yl N-[2-(3-hydroxyazetidin-1-yl)ethyl]carbamate; trifluoroacetic acid], the IC50 in assay [1] (sfGFP/mCherry ratio) fell in the range of 10 to 20 µM; in assay [2], 20 to 30 µM.

Take `COc1ccc(C[C@H]2NC[C@H](O)[C@H]2OC(=O)Nc2nc3ccccc3[nH]2)cc1` [V187754, (2R,3S,4S)-4-hydroxy-2-[(4-methoxyphenyl)methyl]pyrrolidin-3-yl N-(1H-1,3-benzodiazol-2-yl)carbamate]: in assay [2], the IC50 was under 10 µM.

For `CNC(=O)O[C@@H]1[C@@H](O)CN[C@@H]1Cc1ccc(OC)cc1` [V187583, (2R,3S,4S)-4-hydroxy-2-[(4-methoxyphenyl)methyl]pyrrolidin-3-yl N-methylcarbamate; trifluoroacetic acid], the IC50 in assay [2] is under 10 µM.

Regarding `COc1ccc(C[C@H]2NC[C@H](O)[C@H]2OC(=O)NCCN2CCC3(CCC3)C2)cc1` [V187641, (2R,3S,4S)-4-hydroxy-2-[(4-methoxyphenyl)methyl]pyrrolidin-3-yl N-(2-{6-azaspiro[3.4]octan-6-yl}ethyl)carbamate], in assay [2], the IC50 is 10 to 20 µM.

On to `Cn1cc(-c2ccc(C[C@H]3NC[C@H](O)[C@H]3OC(=O)NCc3ccccc3)cc2)nn1` [V188392, (2R,3S,4S)-4-hydroxy-2-{[4-(1-methyl-1,2,3-triazol-4-yl)phenyl]methyl}pyrrolidin-3-yl N-benzylcarbamate], for which the IC50 in assay [1] (setting [6]), in assay [3], in assay [4] and in assay [5] was under 10 µM in each case.

For the compound `COc1ccc(C[C@H]2NC[C@H](O)[C@H]2OC(=O)NCCC(C)(C)O)cc1` [V190413, (2R,3S,4S)-4-hydroxy-2-[(4-methoxyphenyl)methyl]pyrrolidin-3-yl N-(3-hydroxy-3-methylbutyl)carbamate], the 50% inhibitory concentration (IC50) in assay [1] (setting [6]) is 10 to 20 µM; in assay [3], 20 to 30 µM; in assay [4], 10 to 20 µM; in assay [5], under 10 µM.

In the case of `COc1ccc(C[C@H]2NC[C@H](O)[C@H]2OC(=O)NCc2cnoc2)cc1` [V188383, (2R,3S,4S)-4-hydroxy-2-[(4-methoxyphenyl)methyl]pyrrolidin-3-yl N-(1,2-oxazol-4-ylmethyl)carbamate], the concentration for half-maximal inhibition (IC50) in assay [1] (setting [6]), in assay [3], in assay [4] and in assay [5] was under 10 µM each time.

Consider `COc1ccc(C[C@H]2NC[C@H](O)[C@H]2OC(=O)NCC#Cc2ccccc2)cc1` [V188315, (2R,3S,4S)-4-hydroxy-2-[(4-methoxyphenyl)methyl]pyrrolidin-3-yl N-(3-phenylprop-2-yn-1-yl)carbamate], for which the IC50 is 10 to 20 µM in assay [1] (setting [6]), 20 to 30 µM in assay [3], under 10 µM in assay [4] and under 10 µM in assay [5].

For the compound `CC(F)(F)c1ccc(C[C@H]2NC[C@H](O)[C@H]2OC(=O)NCc2cccc(F)c2)cc1` [V190547, (2R,3S,4S)-2-{[4-(1,1-difluoroethyl)phenyl]methyl}-4-hydroxypyrrolidin-3-yl N-[(3-fluorophenyl)methyl]carbamate], the concentration for half-maximal inhibition (IC50) is under 10 µM in assay [1] (setting [6]), 20 to 30 µM in assay [3], under 10 µM in assay [4] and under 10 µM in assay [5].

Regarding `COc1ccc(C[C@H]2NC[C@H](O)[C@H]2OC(=O)NCC(F)(F)c2ccccc2)cc1` [V188165, (2R,3S,4S)-4-hydroxy-2-[(4-methoxyphenyl)methyl]pyrrolidin-3-yl N-(2,2-difluoro-2-phenylethyl)carbamate], the IC50 in assay [1] (setting [6]) was 20 to 30 µM; in assay [3] it was 10 to 20 µM; in assay [4], 20 to 30 µM; in assay [5], under 10 µM.

Consider `COc1ccc(C[C@H]2NC[C@H](O)[C@H]2OC(=O)NCc2ccc(C#N)cc2)cc1` [V188377, (2R,3S,4S)-4-hydroxy-2-[(4-methoxyphenyl)methyl]pyrrolidin-3-yl N-[(4-cyanophenyl)methyl]carbamate], for which the IC50 in assay [1] (setting [6]), in assay [3], in assay [4] and in assay [5] was under 10 µM throughout.

As to `COc1ccc(C[C@H]2NC[C@H](O)[C@H]2OC(=O)NCCn2nc(C)cc2C)cc1` [V190415, (2R,3S,4S)-4-hydroxy-2-[(4-methoxyphenyl)methyl]pyrrolidin-3-yl N-[2-(3,5-dimethylpyrazol-1-yl)ethyl]carbamate], the IC50 in assay [1] (setting [6]), in assay [3], in assay [4] and in assay [5] was over 30 µM throughout.

Take `COc1ccc(C[C@H]2NC[C@H](O)[C@H]2OC(=O)NCc2ccc(F)cc2)cc1` [V188378, (2R,3S,4S)-4-hydroxy-2-[(4-methoxyphenyl)methyl]pyrrolidin-3-yl N-[(4-fluorophenyl)methyl]carbamate]: the half-maximal inhibitory concentration (IC50) in assay [1] (setting [6]), in assay [3], in assay [4] and in assay [5] was under 10 µM each time.

Regarding `O=C(NCC[C@@H]1CCCN1)O[C@@H]1[C@@H](O)CN[C@@H]1Cc1ccc(-c2ccc(C(F)(F)F)cc2)cc1` [V191963, (2R,3S,4S)-4-hydroxy-2-{[4′-(trifluoromethyl)-[1,1′-biphenyl]-4-yl]methyl}pyrrolidin-3-yl N-{2-[(2S)-pyrrolidin-2-yl]ethyl}carbamate], the half-inhibitory concentration (IC50) in assay [1] (setting [6]) is over 30 µM; in assay [3] it was over 30 µM; in assay [4], 20 to 30 µM; in assay [5], 20 to 30 µM.

In the case of `COc1ccc(C[C@H]2NC[C@H](O)[C@H]2OC(=O)NCC[C@@H]2CCCN2)cc1` [V188341, (2R,3S,4S)-4-hydroxy-2-[(4-methoxyphenyl)methyl]pyrrolidin-3-yl N-{2-[(2S)-pyrrolidin-2-yl]ethyl}carbamate], the IC50 in assay [1] (setting [6]), in assay [3], in assay [4] and in assay [5] was under 10 µM each time.

In the case of `O=C(NCc1cccc(F)c1)O[C@@H]1[C@@H](O)CN[C@@H]1Cc1ccc(-c2ncco2)cc1` [V190514, (2R,3S,4S)-4-hydroxy-2-{[4-(1,3-oxazol-2-yl)phenyl]methyl}pyrrolidin-3-yl N-[(3-fluorophenyl)methyl]carbamate], the concentration for half-maximal inhibition (IC50) in assay [1] (setting [6]), in assay [3], in assay [4] and in assay [5] was under 10 µM in each case.
